According to patent US20110124626A1, “BENZAZEPINE DERIVATIVES AND THEIR USE AS HISTAMINE H3 ANTAGONISTS” (TAKEDA PHARMACEUTICAL COMPANY LIMITED, priority 2008, published 2011):

These compounds were tested against T1, human H3 receptor (Homo sapiens, UniProt Q9Y5N1) (assay: In vitro H3 functional assay (cAMP response element driven luciferase reporter)). Settings: CHO(dhfr+)-cre-luc cells expressing human H3 receptor; RαMH 10 nM, forskolin 1 μM; read-out: hH3 functional IC50.
T1 construct: expressed in transfected cells
T1 sequence (Q9Y5N1 whole entry): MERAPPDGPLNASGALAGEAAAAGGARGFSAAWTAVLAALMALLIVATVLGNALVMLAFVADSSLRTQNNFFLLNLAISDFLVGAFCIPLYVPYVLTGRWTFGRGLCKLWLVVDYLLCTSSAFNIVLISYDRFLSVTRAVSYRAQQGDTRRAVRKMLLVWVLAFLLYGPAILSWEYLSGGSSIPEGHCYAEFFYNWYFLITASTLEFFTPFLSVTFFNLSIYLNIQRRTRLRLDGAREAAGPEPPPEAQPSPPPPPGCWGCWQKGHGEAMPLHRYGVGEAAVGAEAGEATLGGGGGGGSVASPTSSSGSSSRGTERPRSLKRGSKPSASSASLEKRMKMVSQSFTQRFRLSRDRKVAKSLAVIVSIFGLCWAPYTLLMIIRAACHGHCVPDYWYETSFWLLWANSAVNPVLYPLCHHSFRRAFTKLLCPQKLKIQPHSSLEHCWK
Format: cell-based
Procedure: The functional activity of compounds at the H3 receptor was determined by measuring changes in the level of intracellular cAMP using a cAMP response element driven luciferase reporter assay. The changes in luciferase expression were monitored by a luminescence plate reader, Analyst HT (MDS Analytical). Increases in intracellular cAMP were readily detected upon activation of protein kinase A by forskolin (Sigma) and suppression of this response observed with the application of the H3 receptor agonist RαMH (Sigma).
CHO(dhfr^+)-cre-luc cells stably expressing human H3 receptor were routinely grown as monolayers in Minimal Essential Medium α (MEMα) (Invitrogen) supplemented with 10% dialysed FBS (Hyclone), in 5% CO2 at 37° C. 48 hours prior to assay, cells were seeded in clear-base white walled 384-well plates (Corning) at a density of 5000 cells/well. On the day of assay, growth media was removed and replaced with […] of assay buffer (MEMα, 5 mg/ml fatty acid free BSA (Sigma)) per well. Cells were then incubated for 30 minutes at 37° C., 5% CO2. Compound was serially diluted in DMSO before being diluted 1:10 with assay buffer. 2.5 of compound diluted in assay buffer was added and cells incubated for 5 minutes at 37° C., 5% CO2. 2.5 μl of each reagent was then added in the following order: RαMH (10 nM), isobutylmethylxanthine (1-methyl-3-(2-methylpropyl)-7H-purine-2,6-dione; IBMX) (500 μM) (Sigma) and forskolin (1 μM). Cells were then incubated for 90 minutes at 37° C., 5% CO2, followed by 30 minutes at room temperature. At the end of incubation 25 μl of Steadylite reagent (Perkin Elmer) was added, plates were sealed and placed on a shaker for 5 minutes. The level of light output to determine the level of luciferase expression was then measured.
IC50 values for compounds were determined from ten point half log scale dose-response studies and represent the concentration of compound required to […] 50% inhibition of forskolin stimulated cells in the presence of RαMH alone. Curves were generated using the average of duplicate wells for each data point and analyzed using nonlinear regression of four parameter dose response.

Compound `CC(=O)N1CCC(C(O)Cc2ccc3c(c2)CCN(C2CCC2)CC3)CC1` (racemic) [Example 146, 1-(4-(2-(3-cyclobutyl-2,3,4,5-tetrahydro-1H-benzo[d]azepin-7-yl)-1-hydroxyethyl)piperidin-1-yl)ethanone] has an IC50 of 10 nM.

Each compound was assayed against T1, human H3 receptor (assay: In vitro H3 binding assay (3H-N-α-methyl-histamine competition binding)). Settings: membranes of CHO-K1 cells expressing human H3 receptor; 2 nM 3H-NαMH; read-out: hH3 binding IC50.
Procedure: The ability of compounds to bind to the H3 receptor was determined by measuring the reduction in tritiated N-α-methyl-histamine (^3H—NαMH) binding in a competition binding assay. Changes in the levels of bound radio-label were monitored by scintillation counting with a Trilux Microbeta (Perkin Elmer).
Membranes were prepared from CHO-K1 cells stably expressing human H3 receptor; routinely grown as monolayers in Ham's F12 medium (Invitrogen) supplemented with 10% Foetal Clone 111 (Hyclone), 500 μg/ml G418 (Invitrogen), 5 μg/ml blasticidine S (Invivogen) and […] Gentamicin (Sigma) in 5% CO2 at 37° C. Cells were grown to 80-95% confluency, rinsed once with 1×PBS (Invitrogen) and detached by incubating with 1×PBS containing 0.02% EDTA (Sigma) for 10 minutes at room temperature. Cells were collected by centrifugation at 900×g, 4° C. for 10 minutes. Cells were rinsed once with 1×PBS and re-suspended in ice cold homogenisation buffer (50 mM Tris-HCl (pH 7.4), 2.5 mM EDTA, 5 mM MgCl2, 200 mM Sucrose) at 1×10^7 cells/ml and kept on ice. Cells were homogenised on ice and debris removed by centrifugation at 500×g, 4° C. for 5 minutes. The resulting supernatant was centrifuged at 75,600×g, 4° C. for 60 minutes. Membranes were suspended in homogenisation buffer, protein concentration was determined (BCA Protein Assay kit (Pierce)), diluted to 2.2 mg/ml, dispensed into 1 ml aliquots and stored at −80° C.
Membranes were thawed on ice, sonicated with 4 cycles of 20 pulses (50% amplitude, 0.5 pulse) (UP200S Hielscher) on ice, diluted in assay buffer (50 mM Tris-HCl (pH7.4), 5 mM MgCl2) to 62.5 μg/ml. Compound was serially diluted in DMSO before being diluted 1:10 with assay buffer. 5 μg of membrane in 80 μl of assay buffer was added per well of a 96 well polystyrene plate (Corning). […] of compound was added per well. The assay was initiated by the addition of 10 μl of 20 nM ^3H—NαMH per well and incubated for one hour at room temperature with shaking. Total binding was determined in the presence of 1% DMSO and non-specific binding was determined by the inclusion of 1 μM R-α-methyl-histamine (RαMH). Incubations were then filtered through filtermat A (Perkin Elmer) and washed three times with assay buffer. Filtermats were dried at 42° C. for two hours, scintillant added and the level of bound radioactivity determined.
IC50 values for compounds were determined from seven point log scale dose-response studies and represent the concentration of compound required to inhibit 50% of the specific binding of 2 nM ^3H—NαMH (difference between total and non-specific binding). Curves were generated using the average of duplicate wells for each data point and analyzed using nonlinear regression of sigmoidal dose response (variable slope).

First: CC(=O)N1CCC(C(O)Cc2ccc3c(c2)CCN(C2CCC2)CC3)CC1 (racemic) [Example 146, 1-(4-(2-(3-cyclobutyl-2,3,4,5-tetrahydro-1H-benzo[d]azepin-7-yl)-1-hydroxyethyl)piperidin-1-yl)ethanone]
Second: O=C(C1CCC1)N1CCC(O)(Cc2ccc3c(c2)CCN(C2CCC2)CC3)CC1 [Example 155, cyclobutyl(4-((3-cyclobutyl-2,3,4,5-tetrahydro-1H-benzo[d]azepin-7-yl)methyl)-4-hydroxypiperidin-1-yl)methanone]
The IC50 of the first is 2.4-fold lower: 10 nM for the first, 24 nM for the second. The first is the more potent here.

First: O=C(NCc1ccc2c(c1)CCN(C1CCC1)CC2)c1cccnc1 [Example 120, N-((3-cyclobutyl-2,3,4,5-tetrahydro-1H-benzo[d]azepin-7-yl)methyl)nicotinamide]
Second: CNc1ncc(C(=O)NCc2ccc3c(c2)CCN(C2CCC2)CC3)cn1 [Example 302, N-((3-cyclobutyl-2,3,4,5-tetrahydro-1H-benzo[d]azepin-7-yl)methyl)-2-(methylamino)pyrimidine-5-carboxamide]
The IC50 of the first is 3-fold lower: 1 nM for the first, 3 nM for the second.

Compared with `CO/N=C(\CCc1ccccc1)c1ccc2c(c1)CCN(C1CCC1)CC2` [Example 131, 1-(3-cyclobutyl-2,3,4,5-tetrahydro-1H-benzo[d]azepin-7-yl)-3-phenylpropan-1-one O-methyl oxime], `O/N=C(\CCc1ccccc1)c1ccc2c(c1)CCN(C1CCC1)CC2` [Example 132, 1-(3-cyclobutyl-2,3,4,5-tetrahydro-1H-benzo[d]azepin-7-yl)-3-phenylpropan-1-one oxime] is 5-fold lower in IC50: 30 nM for the first, 6 nM for the second.

Going from `Cn1nccc1CCC(O)c1ccc2c(c1)CCN(C1CCC1)CC2` (stereo not drawn) [Example 137, 1-(3-cyclobutyl-2,3,4,5-tetrahydro-1H-benzo[d]azepin-7-yl)-3-(1-methyl-1H-pyrazol-5-yl)propan-1-ol] to `COc1ccc(NC(=O)Cc2ccc3c(c2)CCN(C2CCC2)CC3)cn1` [Example 274, 2-(3-cyclobutyl-2,3,4,5-tetrahydro-1H-benzo[d]azepin-7-yl)-N-(6-methoxypyridin-3-yl)acetamide], the IC50 falls from 26 nM to 9 nM (2.9-fold).

Going from `Cc1nc(C)c(C(=O)NCc2ccc3c(c2)CCN(C2CCC2)CC3)s1` [Example 268, N-((3-cyclobutyl-2,3,4,5-tetrahydro-1H-benzo[d]azepin-7-yl)methyl)-2,4-dimethylthiazole-5-carboxamide] to `COc1nc(C)c(C(=O)NCc2ccc3c(c2)CCN(C2CCC2)CC3)s1` [Example 275, N-((3-cyclobutyl-2,3,4,5-tetrahydro-1H-benzo[d]azepin-7-yl)methyl)-2-methoxy-4-methylthiazole-5-carboxamide], the IC50 rises from 4 nM to 7 nM (1.8-fold). The first is the more potent here.

First: O=C(NCc1ccc2c(c1)CCN(C1CCOC1)CC2)c1ccc(N2CCCC2)nc1 (stereo not drawn) [Example 269, 6-(pyrrolidin-1-yl)-N-((3-(tetrahydrofuran-3-yl)-2,3,4,5-tetrahydro-1H-benzo[d]azepin-7-yl)methyl)nicotinamide]
Second: O=C(NCc1ccc2c(c1)CCN(C1CCOC1)CC2)c1ccc(N2CC[C@H](F)C2)nc1 (stereo partly drawn) [Example 300, 6-((S)-3-fluoropyrrolidin-1-yl)-N-((3-(tetrahydrofuran-3-yl)-2,3,4,5-tetrahydro-1H-benzo[d]azepin-7-yl)methyl)nicotinamide]
The IC50 of the first is 2-fold lower: 2.5 nM for the first, 5 nM for the second. The first is the more potent here.

Going from `Cc1nocc1C(=O)NCc1ccc2c(c1)CCN(C1CCC1)CC2` [Example 276, N-((3-cyclobutyl-2,3,4,5-tetrahydro-1H-benzo[d]azepin-7-yl)methyl)-3-methylisoxazole-4-carboxamide] to `C[C@H](O)CNc1ccc(C(=O)NCc2ccc3c(c2)CCN(C2CCC2)CC3)cn1` [Example 290, (S)—N-((3-cyclobutyl-2,3,4,5-tetrahydro-1H-benzo[d]azepin-7-yl)methyl)-6-(2-hydroxypropylamino)nicotinamide], the IC50 falls from 19 nM to 3 nM (6.3-fold).

First: O=C(NCc1ccc2c(c1)CCN(C1CCC1)CC2)c1ccc(NCC2CC2)nc1 [Example 280, N-[(3-cyclobutyl-2,3,4,5-tetrahydro-1H-3-benzazepin-7-yl)methyl]-6-[(cyclopropylmethyl)amino]pyridine-3-carboxamide]
Second: O=C(NCc1ccc2c(c1)CCN(C1CCC1)CC2)c1ccc(NC2CCOC2)nc1 (stereo not drawn) [Example 282, N-[(3-cyclobutyl-2,3,4,5-tetrahydro-1H-3-benzazepin-7-yl)methyl]-6-(tetrahydrofuran-3-ylamino)pyridine-3-carboxamide]
The IC50 of the first is 3.3-fold lower: 0.3 nM for the first, 1 nM for the second.

Going from `O=C(NCc1ccc2c(c1)CCN(C1CCC1)CC2)c1ccc(O[C@H]2CCOC2)nc1` [Example 281, N-[(3-cyclobutyl-2,3,4,5-tetrahydro-1H-3-benzazepin-7-yl)methyl]-6-[(3S)-tetrahydrofuran-3-yloxy]pyridine-3-carboxamide] to `COCC(C)(C)Oc1ccc(C(=O)NCc2ccc3c(c2)CCN(C2CCC2)CC3)cn1` [Example 315, N-[(3-cyclobutyl-2,3,4,5-tetrahydro-1H-3-benzazepin-7-yl)methyl]-6-[(1-methoxy-2-methylpropan-2-yl)oxy]pyridine-3-carboxamide], the IC50 rises from 0.8 nM to 2 nM (2.5-fold).

Going from `O=C(NCc1ccc2c(c1)CCN(C1CC(O)C1)CC2)c1ccc(N2CCCC2)nc1` (stereo not drawn) [Example 287, N-((3-(3-hydroxycyclobutyl)-2,3,4,5-tetrahydro-1H-benzo[d]azepin-7-yl)methyl)-6-(pyrrolidin-1-yl)nicotinamide] to `O=C(Cc1ccc2c(c1)CCN(C1CCC1)CC2)Nc1ccc(N2CCCC2)nc1` [Example 294, 2-(3-cyclobutyl-2,3,4,5-tetrahydro-1H-3-benzazepin-7-yl)-N-[6-(pyrrolidin-1-yl)pyridin-3-yl]acetamide], the IC50 rises from 1 nM to 8 nM (8-fold).

`CN(Cc1ccc2c(c1)CCN(C1CCC1)CC2)C(=O)c1cnc(N2CCCC2)nc1` [Example 313, N-((3-cyclobutyl-2,3,4,5-tetrahydro-1H-benzo[d]azepin-7-yl)methyl)-N-methyl-2-(pyrrolidin-1-yl)pyrimidine-5-carboxamide] and `C[C@@H](O)CN(C)c1ccc(C(=O)NCc2ccc3c(c2)CCN(C2CCC2)CC3)cn1` [Example 316, (R)—N-((3-cyclobutyl-2,3,4,5-tetrahydro-1H-benzo[d]azepin-7-yl)methyl)-6-((2-hydroxypropyl)(methyl)amino)nicotinamide] are within 1.5-fold of each other in IC50: 1 nM for the first, 0.9 nM for the second.

`O=C(NCc1ccc2c(c1)CCN(C1CCC1)CC2)[C@H]1C[C@@H](OC2CCOCC2)C1` [Example 319, cis-N-((3-cyclobutyl-2,3,4,5-tetrahydro-1H-benzo[d]azepin-7-yl)methyl)-3-(tetrahydro-2H-pyran-4-yloxy)cyclobutanecarboxamide] showed an IC50 of 62 nM.
